For six molecules, IC50, Activity and viability results are on record in ChEMBL document CHEMBL6096670, “Design, synthesis and biological evaluation of novel β-carbolines as antitumor agents via targeting autophagy in colorectal cancer” (Eur J Med Chem, 2025).

Molecules are shown by their SMILES. A value given as a limit tells only on which side of the number the result lay.

The IC50 is the concentration needed to halve the response being measured.

The test system of one assay is A-375. Nature of the assay: Antiproliferative activity against human A-375 cells assessed as inhibition of cell growth incubated for 48 hrs by MTT assay. The assay is classed as functional, cell-based. The following applies: A-375, 48 h. On the technique in general: Tetrazolium assays rely on reduction of a dye to a coloured formazan, in cell work by metabolically active cells.

Another assay deals with MCF7. Nature of the assay: Antiproliferative activity against human MCF7 cells assessed as inhibition of cell growth incubated for 48 hrs by MTT assay. Conditions: MCF7, 48 h. Format: functional, cell-based.
A further assay concerns SK-OV-3. Nature of the assay: Antiproliferative activity against human SK-OV-3 cells assessed as inhibition of cell growth incubated for 48 hrs by MTT assay. Conditions: SK-OV-3, 48 h. The assay is classed as functional, cell-based.
A further assay deals with BGC-823. In words: Antiproliferative activity against human BGC-823 cells assessed as inhibition of cell growth incubated for 48 hrs by MTT assay. Format: functional, cell-based. The following applies: BGC-823, 48 h.
Another assay deals with HT-29. In words: Antiproliferative activity against human HT-29 cells assessed as inhibition of cell growth incubated for 48 hrs by MTT assay. Format: functional, cell-based. The following applies: HT-29, 48 h.
The test system of another assay is CWR22R. In words: Antiproliferative activity against human 22Rv1 cells assessed as inhibition of cell growth incubated for 48 hrs by MTT assay. The assay is classed as functional, cell-based. The following applies: 22Rv1, 48 h.
The next assay relates to 786-0. Nature of the assay: Antiproliferative activity against human 786-0 cells assessed as inhibition of cell growth incubated for 48 hrs by MTT assay. The following applies: 786-0, 48 h. The assay is classed as functional, cell-based.
The subject of the next assay is HepG2. In words: Antiproliferative activity against human HepG2 cells assessed as inhibition of cell growth incubated for 48 hrs by MTT assay. Format: functional, cell-based. The following applies: HepG2, 48 h.
For assay [1], the system named is HCT-116. In words: Induction of apoptosis in human HCT-116 assessed as early apoptotic cells at 100 uM pretreated with Z-VAD-FMK for 30 mins followed by compound addition and measured after 24 hrs by Annexin V-FITC/PI double staining based flow cytometry (reference value: […]). Format: functional. For orientation: In flow cytometry, cells or beads pass a laser one at a time.

Assay [2] concerns HCT-116. In words: Induction of apoptosis in human HCT-116 assessed as early apoptotic cells at 100 uM incubated for 24 hrs Annexin V FITC/PI double staining based flow cytometry (reference value: 1.07 %). Format: functional.
Assay [3] concerns HCT-116. Nature of the assay: Induction of apoptosis in human HCT-116 assessed as viable cells at 100 uM incubated for 24 hrs Annexin V FITC/PI double staining based flow cytometry (Rvb =90.0%). The assay is classed as functional. The following applies: read-out: Activity.
The test system of assay [4] is HCT-116. In words: Induction of apoptosis in human HCT-116 assessed as late apoptotic cells at 100 uM pretreated with Z-VAD-FMK for 30 mins followed by compound addition and measured after 24 hrs by Annexin V-FITC/PI double staining based flow cytometry (reference value: 7.43 %). The assay is classed as functional.
Assay [5] relates to HCT-116. In words: Induction of apoptosis in human HCT-116 assessed as viable cells at 100 uM pretreated with Z-VAD-FMK for 30 mins followed by compound addition and measured after 24 hrs by Annexin V-FITC/PI double staining based flow cytometry (reference value: 90.8%). The assay is classed as functional. The following applies: read-out: Activity.
In assay [6] the test system is HCT-116. In words: Induction of apoptosis in human HCT-116 assessed as necrotic cells at 100 uM pretreated with Z-VAD-FMK for 30 mins followed by compound addition and measured after 24 hrs by Annexin V-FITC/PI double staining based flow cytometry (reference value: 0.84 %). The assay is classed as functional.
Assay [7] relates to HCT-116. In words: Induction of apoptosis in human HCT-116 assessed as late apoptotic cells at 100 uM incubated for 24 hrs Annexin V FITC/PI double staining based flow cytometry (reference value: 8.02 %). Format: functional.
Assay [8] deals with HCT-116. In words: Induction of apoptosis in human HCT-116 assessed as necrotic cells at 100 uM incubated for 24 hrs Annexin V FITC/PI double staining based flow cytometry (reference value: 0.94 %). The assay is classed as functional.

`CCN(CC)CCCNCc1cc2c3ccccc3n(Cc3ccccc3)c2c(CNCCCN(CC)CC)n1`: the IC50 with A-375 was found to be 7.83 µM; in the assay on MCF7, 15.2 µM; with SK-OV-3, 9.62 µM; in the assay on BGC-823, 7.24 µM; with HT-29 it was 5.54 µM; in the assay with CWR22R, 11.2 µM. Further, the results for the IC50 with 786-0 and in the assay on HepG2 were 10.6 µM and 14.3 µM, respectively.

Take `CCN(CC)CCCNCc1cc2c([nH]c3ccccc32)c(CNCCCN(CC)CC)n1`: the IC50 in the assay with A-375 is above 20 µM; in the assay with MCF7, above 20 µM; in the assay with SK-OV-3 it was above 20 µM; in the assay with BGC-823 it was above 20 µM; in the assay on HT-29, 12.7 µM; in the assay with CWR22R it was 16.1 µM. The IC50 in the assay on 786-0 was 14.9 µM; in the assay on HepG2, above 20 µM.

Regarding `CCCCn1c2ccccc2c2cc(CNCCCN(CC)CC)nc(CNCCCN(CC)CC)c21`, the IC50 came out at 15.8 µM in the assay on A-375; 10.5 µM in the assay with MCF7; 15.8 µM with SK-OV-3; 11.2 µM with BGC-823; 8.03 µM in the assay with HT-29; 8.24 µM in the assay on CWR22R. Also, the half-inhibitory concentration (IC50) in the assay on 786-0 turned out to be 9.32 µM; in the assay on HepG2, 15.6 µM.

Take `O=c1[nH]cc(F)c(=O)[nH]1` [FLUOROURACIL]: the Activity in the assay on HCT-116 [1] is on record as 3.01%; in the assay with HCT-116 [2] it was 39.6%; in the assay on HCT-116 [4], 17.3%; in the assay with HCT-116 [6] it was 4.13%; in the assay on HCT-116 [7] it was 15.2%; in the assay on HCT-116 [8], 1.62%. The viability at 100 µM with HCT-116 [3] was determined as 43.6%; with HCT-116 [5] it was 75.5%.

For `CCN(CC)CCCNCc1cc2c3ccccc3n(C)c2c(CNCCCN(CC)CC)n1`, the concentration for half-maximal inhibition (IC50) is above 20 µM in the assay on A-375; above 20 µM with MCF7; above 20 µM in the assay on SK-OV-3; 16.8 µM in the assay on BGC-823; 8.62 µM in the assay on HT-29; 12.6 µM in the assay on CWR22R. The results for the IC50 with 786-0 and in the assay on HepG2 were 14.2 µM and above 20 µM, respectively.

Turning to `CCN(CC)CCCNCc1cc2c3ccccc3n(Cc3ccc(F)cc3)c2c(CNCCCN(CC)CC)n1`, the IC50 with A-375 was 4.82 µM; with MCF7, 6.92 µM; in the assay with SK-OV-3, 7.85 µM; in the assay on BGC-823, 8.81 µM; in the assay with HT-29, 5.81 µM; in the assay on CWR22R it was 9.22 µM. Moreover, the results for the IC50 in the assay with 786-0 and with HepG2 were 5.42 µM and 5.68 µM, respectively.
